Measured values published in patent publication US20230189808A1, “SELECTIVE HERBICIDES BASED ON SUBSTITUTED ISOXAZOLIN CARBOXAMIDES AND FURILAZOLE” (Bayer Aktiengesellschaft, priority 2020, published 2023).

Tests used:
[1] = system: ZEAMA Sileno; experiment: Safener seed treatment with pre-emergence herbicide application, crop damage test in greenhouse; type: in vivo, maize; set-up: key to Reduction [Difference]: difference in % crop damage (visual score vs untreated control); details: for Reduction [%] / Reduction [Difference]: furilazole 0.25 g a.i./kg seed; for HER effect + SAF [%] / HER effect [%]: pre-emergence; for HER effect + SAF [%]: furilazole seed treatment 0.25 g a.i./kg seed; for HER effect [%]: % crop damage
Description: Seed Treatment; Pre-Emergence • A) Method Description
For the safener seed treatment, sufficient seeds of the respective crops (spring wheat, TRZAS; spring barley, HORVS; maize, ZEAMA) were weighed into screw top glass bottles approximately twice the volume of the seeds.
The specified safeners, formulated as wettable powder (WP) were weighed out so that the specified rates (g a·i·/kg seed) would be obtained, dissolved in water (1 ml water per 10 g of seeds), and added to the seeds to produce a slurry.
The bottles were capped and then placed in an overhead shaker (set at medium speed for ca. 60 minutes) so that the seeds were evenly coated with the slurry. The bottles were uncapped and the seeds were either placed on paper and dried for an interval of 3-4 hours prior to sowing, or directly sown. Seeds were placed in sandy loam soil in pots of a diameter of 7-8 cm, and covered with soil.
Pre-emergence application of the specified herbicides was done subsequently, on two sets of plants:
a) seed treatment with safener, as described above
The herbicides were formulated as WP and was sprayed onto the soil surface as an aqueous suspension at an equivalent water application rate of 300 1/ha.
After application, the test plants were kept in the greenhouse under good growth conditions. At intervals up to 4 weeks after application (=28 days after treatment; DAT), % crop damage observed on the treated plants was scored visually in comparison to control plants that had not received any safener or herbicide treatment.
Values in the table below are mean values of at least 2 replicates.
(§1) Plant Species, Variety: ZEAMA Sileno, Safener (SAF): Furilazole

[2] = system: ZEAMA Sileno; experiment: Tank-mix post-emergence crop damage and safener test in greenhouse; type: in vivo, maize; details: final assessment
Description: Tank-Mix; Post-Emergence • A) Method Description
Seeds of crops (spring wheat, TRZAS; spring barley, HORVS; maize, ZEAMA) were placed in sandy loam soil in peat pots, covered with soil and cultivated in a greenhouse under good growth conditions. Two to three weeks after sowing, the test plants were treated at the 1 to 3-leaf stage. The herbicide/safener active compound combinations according to the invention, formulated as wettable powders or emulsion concentrates, and, in parallel tests, the correspondingly formulated individual active compounds were sprayed onto the green parts of the plants in various dosages using an amount of water of 300 1/ha (converted).
The pots were returned under good growing conditions in a glasshouse and a visual assessment of herbicidal effects was made at intervals from 1 to 3 weeks after herbicide application (DAT=days after treatment). Assessment was on a percentage basis in comparison with untreated control plants (0%=no injury, 100%=complete kill).
as §1

[3] = herbicide alone 40 g a.i./ha, 14 DAT
[4] = herbicide alone 40 g a.i./ha, 26 DAT
[5] = herbicide alone 80 g a.i./ha, 14 DAT
[6] = herbicide alone 80 g a.i./ha, 26 DAT

Structure (SMILES)	Reduction [%] ([1]; herbicide 40 g a.i./ha, 14 DAT)	Reduction [Difference] ([1]; herbicide 40 g a.i./ha, 14 DAT)	Reduction [%] ([1]; herbicide 40 g a.i./ha, 26 DAT)	Reduction [Difference] ([1]; herbicide 40 g a.i./ha, 26 DAT)	HER effect + SAF [%] ([1]; herbicide 40 g a.i./ha, 14 DAT)	HER effect + SAF [%] ([1]; herbicide 40 g a.i./ha, 26 DAT)	HER effect [%] [1, 3]	HER effect [%] [1, 4]	Reduction [%] ([1]; herbicide 80 g a.i./ha, 14 DAT)	Reduction [Difference] ([1]; herbicide 80 g a.i./ha, 14 DAT)	Reduction [%] ([1]; herbicide 80 g a.i./ha, 26 DAT)	Reduction [Difference] ([1]; herbicide 80 g a.i./ha, 26 DAT)	HER effect + SAF [%] ([1]; herbicide 80 g a.i./ha, 14 DAT)	HER effect + SAF [%] ([1]; herbicide 80 g a.i./ha, 26 DAT)	HER effect [%] [1, 5]	HER effect [%] [1, 6]	Reduction [%] ([2]; Reduction [Difference]*100/herbicide damage without safener, herbicide 32 g a.i./ha, furilazole 100 g a.i./ha)	Reduction [Difference] ([2]; herbicide damage without safener minus with safener, herbicide 32 g a.i./ha, furilazole 100 g a.i./ha)	HER effect + SAF [%] ([2]; post-emergence tank-mix, herbicide 32 g a.i./ha + furilazole 100 g a.i./ha)	HER effect [%] ([2]; post-emergence, herbicide alone 32 g a.i./ha, visual crop injury (0%=no injury, 100%=complete kill))
COC(=O)[C@H]1OCC[C@@H]1NC(=O)[C@@]1(C)CC(c2cc(F)cc(F)c2)=NO1 [Example 1.92]	100%	75	86%	60	0%	10%	75%	70%												
C=CC1(C(=O)NC2C=C(C(=O)OC)OC2)CC(c2cc(C)cc(C)c2)=NO1 (centres unmarked) [Example 1.90]									80%	20	100%	30	5%	0%	25%	30%				
C=CC1(C(=O)NC2C=CC(C(=O)OC)C2)CC(c2cc(F)cc(F)c2)=NO1 (centres unmarked) [Example 1.26]			80%	40		10%		50%	79%	55	86%	60	15%	10%	70%	70%	61%	57	37%	94%
COCCOC(=O)C1C=CC(NC(=O)C2(C(F)(F)F)CC(c3cc(F)cc(C#N)c3)=NO2)C1 (centres unmarked) [Example 1.2]	63%	25			15%		40%		100%	45			0%		45%					
CN(C)C(=O)SCCOC(=O)C1C=CC(NC(=O)C2(C)CC(c3cc(F)cc(F)c3)=NO2)C1 (centres unmarked) [Example 1.29]									50%	30			30%		60%					
CSCCOC(=O)C1C=CC(NC(=O)C2(C(F)(F)F)CC(c3cc(F)cc(F)c3)=NO2)C1 (centres unmarked) [Example 1.7]	34%	28			55%		83%													
C=CC1(C(=O)NC2COC(C(=O)OC)C2)CC(c2cc(F)cc(F)c2)=NO1 (mixture of isomers) [Example 1.68]	73%	68	79%	75	25%	20%	93%	95%	38%	37	40%	40	60%	60%	97%	100%				
C=CC1(C(=O)NC2COC(C(=O)OC)C2)CC(c2cc(F)cc(F)c2)=NO1 (centres unmarked) [Example 1.69]	37%	35			60%		95%													
COC(=O)C1=C[C@@H](NC(=O)[C@@]2(C)CC(c3cc(F)cc(F)c3)=NO2)CC1 [Example 1.63]	50%	30	100%	25	30%	0%	60%	25%												
COCCOC(=O)C1C=CC(NC(=O)C2(C)CC(c3cc(Cl)cc(C#N)c3)=NO2)C1 (centres unmarked) [Example 1.5]									33%	20	67%	30	40%	15%	60%	45%				
C=CC1(C(=O)NC2COC(C(=O)OC)C2)CC(c2cc(F)cc(F)c2)=NO1 (centres unmarked) [Example 1.70]	44%	35	24%	20	45%	65%	80%	85%	58%	55	63%	60	40%	35%	95%	95%				
CC1(C(=O)NC2C=CC(C(=O)O)C2)CC(c2cc(F)cc(F)c2)=NO1 (centres unmarked) [Example 1.36]									40%	33			50%		83%					
